Experimental data: PMC5577653, “Lactoferricin Peptides Increase Macrophages' Capacity To Kill Mycobacterium avium” (mSphere, 2017)
Counter-ions that a name gives are not always drawn. Square brackets hold non-standard residues; d marks the D form. Ends that are not written are not given here. Peptide text beside a SMILES is read from it.

How the values were obtained:
[1] = test system: M. avium-infected macrophages; conditions: M. avium 2447 SmT-infected BMM; 4 to 120 h; data not shown
[2] = in vitro; conditions: cell culture medium (supplemented DMEM)
Method: (§1) After 0, 0.5, 2, 4, 8, 24, 48, 72, and 96 h of incubation, a 40-µl aliquot was immediately injected for RP-HPLC analysis using an elution gradient of 0 to 100% acetonitrile in 0.05% aqueous trifluoroacetic acid (TFA) for 30 min at a flow rate of 1 ml/min.
(§2) At the end of 0, 0.5, 2, 4, 8, 24, 48, 72, and 96 h, an aliquot was taken from each mixture and analyzed by high-performance liquid chromatography (HPLC). The HPLC (Hitachi Elite Autosampler L-2200, pump L-2130, diode array detector L-2455, and column oven L-2300) was performed with a 150-mm-diameter C18 reverse-phase column (Merck). Each analysis involved an injection volume of 40 µl and elution with 0 to 100% acetonitrile in 0.05% aqueous trifluoroacetic acid (TFA) at a flow rate of 1 ml/min; the detection wavelength was set to 220 nm. The chromatograms were analyzed with EZChrom Elite software, and the peaks were integrated to extract the area.

[3] = test system: M. avium 2447 SmT; assay: Intramacrophagic M. avium growth, CFU assay in BALB/c BMM; assay type: cell-based, Mycobacterium avium; conditions: peptides 40 µM, ethambutol 7.2 µM, each alone, 5 days
Method: Given that the peptides at up to 40 µM were not toxic to macrophages, we evaluated their effect on M. avium growing inside these cells. Bone marrow-derived macrophages were obtained from BALB/c mice and infected with M. avium 2447 smooth transparent variant (SmT). The different peptides were added at 40 µM, and ethambutol was added at 7.2 µM. After 5 days in culture, the number of intracellular bacteria per culture well was quantified in a CFU assay (Fig. 1D).
BMM at day 10 of culture were infected with 10^6 CFU of M. avium 2447 SmT for 4 h at 37°C in a 7% CO2 atmosphere. After incubation, cells were washed several times to remove noninternalized bacteria and reincubated with new medium with or without 40 µM peptide (76.9 µg/ml LFcin17–30 and D-LFcin17–30, 73.6 µg/ml LFcin17–30 all R, 80.3 µg/ml LFcin17–30 all R), alone or in combination with the antibiotic ethambutol (2 µg/ml or 7.2 µM ethambutol dihydrochloride; Sigma-Aldrich, St. Louis, MO, USA). Each condition was tested in triplicate. After 5 days in culture, the intracellular growth of M. avium 2447 SmT was evaluated by determining the number of CFU, as described previously ([75]).

[4] = test system: M. avium; conditions: broth culture; cited from earlier work
Source text: In contrast, we now verify that only D-LFcin17–30 induces a significant decrease in mycobacterial growth inside macrophages. However, all peptides were effective when combined with the antibiotic ethambutol. The combination of antimicrobial peptides with conventional antibiotics is of great potential interest, as it might reduce the dosages of each ...

[5] = 40 µM peptide in supplemented DMEM cell culture medium, 37°C, up to 96 h; RP-HPLC C18, UV 220 nm, peak area relative to time zero
Method: as §1, §2

| Compound | levels of apoptosis or necrosis [1] | activity against M. avium in axenic cultures [4] | other results |
| --- | --- | --- | --- |
| CSCC[C@@H](NC(=O)[C@@H](CCCNC(=N)N)NC(=O)[C@@H](Cc1c[nH]c2ccccc12)NC(=O)[C@@H](CCC(N)=O)NC(=O)[C@@H](Cc1c[nH]c2ccccc12)NC(=O)[C@@H](CCCNC(=N)N)NC(=O)[C@@H](CCCNC(=N)N)NC(=O)[C@@H](CS)NC(=O)[C@@H](CCCCN)NC(=O)[C@H](N)Cc1ccccc1)C(=O)N[C@H](CCCCN)C(=O)N[C@H](CCCCN)C(=O)N[C@H](CC(C)C)C(=O)NCC(=O)O [D-LFcin17–30] (H-[dF][dK][dC][dR][dR][dW][dQ][dW][dR][dM][dK][dK][dL]G-OH) | no significant changes |  | metabolised at 96 h, 40 µM [2]: ≤ 30% |
| CC[C@@H](CO)NCCN[C@@H](CC)CO [ethambutol, ethambutol dihydrochloride] |  |  | inhibition of intramacrophagic M. avium growth, compound alone [3]: None of the other peptides or ethambutol alone significantly inhibited M. avium growth |
| FKCKKWQWKMKKLG [LFcin17–30 all K, LFcin17–30 variant with all arginines replaced with lysines] |  | all active |  |
| FKCRRWQWRMKKLG [LFcin17–30] | no significant changes |  | degradation of peptide after 96 h of incubation [5]: completely degraded; metabolised at 24 h, 40 µM [2]: 50% |
| FRCRRWQWRMRRLG [LFcin17–30 all R, LFcin17–30 variant with all lysines replaced with arginines] |  | all active |  |
